# Assay results: patent publication US20250099420A1, “SMALL MOLECULE MODULATORS OF GPR139 COMPLEX” (University of Florida Research Foundation, Incorporated, priority 2022, published 2025)
# Like-named read-outs stand apart in the source and are kept apart here.
# Key:
# parental HEK cells = test: HEK parental Agonist Counterscreen Assay (non-transfected cells); format: cell-based; conditions: for Averaged Max % Response (±St. Dev.): activity relative to known control
# Excerpt: The high control for the agonist counterscreen was Forskolin not acetylcholine.
# GPR139 = target: T1, GPR139 (Homo sapiens, UniProt Q6DWJ6); test: GPR139 Agonist titration / agonist counterscreen assay (calcium detection, HEK-GPR139 cells); format: cell-based; design: expressed in transfected cells; host or cells: HEK Aequorin cells, Maxcyte transient transfection; conditions: GPR139 Agonist Activity; for Averaged Max % Response (±St. Dev.): activity relative to known control; for EC50: read-out: EC50
# T1 sequence (Q6DWJ6 1-353): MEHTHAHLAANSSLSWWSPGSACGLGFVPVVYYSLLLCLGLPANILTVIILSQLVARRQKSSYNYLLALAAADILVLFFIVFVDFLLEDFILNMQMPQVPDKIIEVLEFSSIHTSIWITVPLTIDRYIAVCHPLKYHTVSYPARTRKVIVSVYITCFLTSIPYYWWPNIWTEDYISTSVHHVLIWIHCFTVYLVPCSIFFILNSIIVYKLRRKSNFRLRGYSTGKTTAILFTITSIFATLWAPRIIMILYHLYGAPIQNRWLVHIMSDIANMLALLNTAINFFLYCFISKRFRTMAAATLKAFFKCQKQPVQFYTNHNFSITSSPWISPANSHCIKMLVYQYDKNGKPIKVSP
# Description: GPR activity was assessed using a calcium detection assay. […] Negative control samples were treated with DMSO. […] Intracellular calcium was measured using Calcium 5.
# [1] = HEK Agonist Activity section of Table 4 (parental HEK counterscreen)
# [2] = values printed in E-notation without unit
# [3] = Homo sapiens, HEK293, HEK Agonist Activity section of Table 4 (parental HEK counterscreen)
# [4] = Homo sapiens, HEK293, HEK Agonist Activity, parental non-transfected HEK cells
Lipophilic Efficiency (logD) (parental HEK cells; HEK Agonist Activity section),Lipophilic Efficiency (logP) (parental HEK cells; HEK Agonist Activity section),Averaged Max % Response (±St. Dev.) (GPR139),Lipophilic Efficiency (logD) (GPR139; based on logD),Lipophilic Efficiency (logP) (GPR139; based on logP),Hill Slope (GPR139; fitted dose-response curve),Efficiency Ligand (GPR139; ligand efficiency),EC50 (GPR139; [2]),Efficiency Ligand (GPR139),Hill Slope (GPR139),Lipophilic Efficiency (logD) (GPR139),Lipophilic Efficiency (logP) (GPR139),EC50 (GPR139; HEK-GPR139 cells),Lipophilic Efficiency (logD) (parental HEK cells; HEK Agonist Activity),Lipophilic Efficiency (logP) (parental HEK cells; HEK Agonist Activity),Structure (SMILES),EC50 (parental HEK cells; [1]),Averaged Max % Response (±St. Dev.) (parental HEK cells; HEK Agonist Activity section),EC50 (parental HEK cells; [3]),Averaged Max % Response (±St. Dev.) (parental HEK cells; HEK Agonist Activity),EC50 (parental HEK cells; [4])
1.65,1.65,100.68 ± 11.72%,3.60,3.60,0.73,0.43,160 nM,,,,,,,,CCCc1cc(=O)n2[nH]c(NCc3ccccc3F)nc2n1 [SR-01000100493],> 14.1 µM,4.54 ± 3.12%,,,
6.10,3.11,88.34 ± 12.18%,,,,,,0.29,1.33,7.81,4.82,274 nM,,,COc1ccc2c(c1)C[C@H](C(=O)Nc1ccc(-c3cn[nH]c3)cc1OCC1CNC1)NC2.O=C(O)C(F)(F)F.O=C(O)C(F)(F)F.O=C(O)C(F)(F)F [SR-00000006698],> 14.1 µM,5.81 ± 4.77%,,,
1.79,1.79,87.50 ± 15.37%,,,,,,0.29,0.77,2.73,2.73,,,,C#CC1=C(CCCc2ccc(CC)cc2)CC(CCc2ccccc2CC)=C1 [SR-01000363853],,−6.20 ± 7.21%,> 14.1 µM,,
,,120.81 ± 8.57%,4.01,4.00,1.00,0.43,12 nM,,,,,,0.94,0.93,COc1ccccc1NC(=O)NNC(=O)CSc1cc(C)c(Br)cc1C [SR-01000061624],,,,13.43 ± 5.07%,> 14.1 µM
1.82,1.82,89.20 ± 13.55%,,,,,,0.37,1.64,3.32,3.32,449 nM,,,CN(C)c1ccc(NC(=O)Cn2cc(C=O)c3ccccc32)cc1 [SR-01000146281],> 14.1 µM,8.26 ± 4.28%,,,
0.98,0.97,105.27 ± 9.38%,,,,,,0.33,0.63,2.50,2.49,438 nM,,,O=C(CN1C(=O)OC(O)(c2ccc(Cl)cc2Cl)C1=O)Nc1ccccc1Cl (stereo not shown) [SR-01000062419],,19.92 ± 2.49%,> 14.5 µM,,
2.68,2.68,69.12 ± 3.13%,,,,,,0.31,1.55,3.33,3.33,,,,CCCc1ccc(NC(=O)CCc2nc3c(c(=O)n2C)CCC3)cc1 [SR-01000017533],,−1.95 ± 4.81%,> 14.2 µM,,
3.98,2.09,81.04 ± 10.01%,,,,,,0.24,1.19,5.00,3.11,1400 nM,,,COc1ccc2c(c1)C[C@H](C(=O)Nc1ccc(-c3cn[nH]c3)cc1OCCN1CCCC1)NC2.O=C(O)C(F)(F)F.O=C(O)C(F)(F)F.O=C(O)C(F)(F)F [SR-00000007044],> 14.1 µM,26.95 ± 5.80%,,,
3.21,3.20,109.38 ± 5.55%,5.22,5.22,0.54,0.32,147 nM,,,,,,,,CC1(c2ccc3c(c2)OCO3)NC(=O)N(CC(=O)Nc2ccccc2[N+](=O)[O-])C1=O (stereo not shown) [SR-01000074154],> 15 µM,11.86 ± 8.71%,,,
,,134.67 ± 13.58%,4.01,4.01,0.55,0.34,10.4 nM,,,,,,0.84,0.84,O=C(CN1C(=O)NC2(CCc3ccccc3C2)C1=O)Nc1ccccc1Oc1ccccc1 (stereo not shown) [SR-01000039980],,,,39.53 ± 8.33%,> 15.3 µM
0.78,0.78,68.10 ± 8.73%,,,,,,0.38,0.74,1.36,1.36,3700 nM,,,Cc1ccc(NC(=O)NCCCc2ccccc2)cc1 [SR-01000299370],,−5.05 ± 8.64%,> 14.1 µM,,
,,126.06 ± 10.32%,4.02,4.02,0.31,0.39,13.6 nM,,,,,,1.00,1.00,Cc1cc(C(=O)CCC(=O)NNC(=O)CSc2nc3ccccc3s2)c(C)s1 [SR-01000070591],,,,−5.74 ± 0.47%,> 14.3 µM
2.18,2.18,97.42 ± 2.76%,,,,,,0.34,0.93,3.66,3.66,468 nM,,,O=C(Cn1ncc2c1-c1ccccc1OC2)Nc1ccc(CCO)cc1 [SR-01000098914],,11.28 ± 8.03%,> 14.1 µM,,
3.22,3.22,107.91 ± 12.91%,4.98,4.98,0.75,0.40,242 nM,,,,,,,,CC1=NNC(=O)C1CC(=O)N/N=C/c1cccc2ccccc12 (stereo not shown) [SR-01000080433],> 14.1 µM,29.03 ± 7.47%,,,
2.53,2.53,103.10 ± 11.12%,4.60,4.60,0.87,0.39,,,,,,,,,C=C(CC1C=CC2=C1c1ccccc1CC2)Nc1ccc(CC)cc1 (stereo not shown) [SR-01000098976],,25.21 ± 6.04%,> 14.1 µM,,
2.26,2.26,89.11 ± 2.96%,,,,,,0.51,1.27,4.00,4.00,290 nM,,,COC(=O)c1ccc(CSc2nnc(N)s2)cc1 [SR-01000031964],> 16 µM,13.73 ± 5.82%,,,
